US20260200943A1, “COMPOUNDS FOR TREATING CANCER” (Genesis Therapeutics, Inc., priority 2022, published 2026)

Key:
Type in all cases: biochemical
CDK1/CyclinB1 = target: T1, CDK1/CyclinB1 (Homo sapiens, UniProt P06493); experiment: CDK1/Cyclin B1 Mobility Shift Assay (Caliper, Table B); details: read-out: CDK1/CCNB1 Caliper Ki: Average Ki
T1 construct: Wild-type, full length CDK1 in complex with wildtype, full length CyclinB1: Carna Cat #04-102; purchased Carna 04-102
Procedure: 10 nL of 2000× compound in 100% DMSO is added to a 384-well polypropylene assay plate. 15 μL of 1.3×CDK1/B1 and 1.3× fluorescent substrate (Wild-type, full length CDK1 in complex with wildtype, full length CyclinB1: Carna Cat #04-102 and FL-Peptide 29: PerkinElmer Cat #760429) diluted in kinase buffer (50 mM Hepes, 0.01% Brij-35, 10 mM MgCl2, 1 mM EGTA, 0.05% BSA, and 2 mM DTT) is added to the plates on top of the compound, mixed, and pre-incubated for 30 minutes at room temperature. The fluorescently labeled peptide substrate is phosphorylated by CDK1/B1 upon ATP hydrolysis. Following the incubation, 5 μL of 4×ATP diluted in kinase buffer is added to the plate to initiate the reaction. Following the 30-minute incubation, the reaction is stopped by adding 75 μL of stopping buffer containing 0.5 M EDTA.
The assay plate is then read on a Lab Chip EZ Reader which separates the fluorescently labeled substrate and product peptides through a mobility difference. The phosphorylation of the substrate imparts a negative charge, which allows differences in separation as both are pulled through the microfluidic chip. The ratio of substrate and product values are used to generate percent conversion. These raw percent conversion values are normalized to calculate percent inhibition, which are fit to a four-parameter logistic curve and IC50 values are calculated. IC50 values are converted to Ki using substrate, Kmapp values, and the Cheng-Prusoff equation.

CDK2/CyclinA2 = target: T2, CDK2/CyclinA2 (Homo sapiens, UniProt P24941); experiment: CDK2/CyclinA2 ChEF Assay (Table A)
T2 construct: Wild-type, full length CDK2 in complex with wildtype, full length CyclinA2: Carna Cat #04-103; purchased Carna 04-103
Procedure: 500 nL of 50× compound in 100% DMSO is added to a 384-well low volume, white assay plate. 19.5 μL of 1.3×CDK2/CyclinA2 (Wild-type, full length CDK2 in complex with wildtype, full length CyclinA2: Carna Cat #04-103 diluted in assay buffer (50 mM Hepes, 0.01% Brij-35, 10 mM MgCl2, 0.5 mM EGTA, 1% Glycerol, and 1.2 mM DTT) is added to the plates on top of the compound and pre-incubated for 30 minutes at room temperature. Following the incubation, 5 μL of 5×Sox-chromophore (CSox) labeled peptide substrate (AQT0255, AssayQuant) & ATP diluted in assay buffer is added to the plate to initiate the reaction. The assay is incubated at room temperature for 45 min after initiation. The CSox peptide substrate is phosphorylated by CDK2/A2 upon ATP hydrolysis.
(§1) The fluorescent intensity measurement of the assay plate for all assays described above is read on a microplate reader once the assay is initiated and again at the completion of the assay. Phosphorylation of the CSox-based peptide substrate sensor results in an immediate increase in fluorescence. These raw fluorescence intensity values are normalized to calculate percent inhibition, which are fit to a four-parameter logistic curve and IC50 values are calculated. IC50 values are converted to Ki using substrate, KM^app values, and the Cheng-Prusoff equation.

CDK9/CyclinT1 [1] = target: T3, CDK9/CyclinT1 (Homo sapiens, UniProt P50750); experiment: CDK9/CyclinT1 ChEF Assay (Table A); design: Wild-type, full length CDK9 in complex with wildtype, full length CyclinT1: Invitrogen Cat #PV4131; purchased Invitrogen PV4131; details: 10xKm, read-out: CDK9/CCNT1 ChEF 10xKm Ki: Average Ki
Procedure: 500 nL of 50× compound in 100% DMSO is added to a 384-well low volume, white assay plate. 19.5 μL of 1.3×CDK9/CyclinT1 (Wild-type, full length CDK9 in complex with wildtype, full length CyclinT1: Invitrogen Cat #PV4131) diluted in assay buffer (50 mM Hepes, 0.01% Brij-35, 10 mM MgCl2, 0.5 mM EGTA, 1% Glycerol, and 1.2 mM DTT) is added to the plates on top of the compound and pre-incubated for 30 minutes at room temperature. Following the incubation, 5 μL of 5×Sox-chromophore (CSox) labeled peptide substrate (AQT0449, AssayQuant) & ATP diluted in assay buffer is added to the plate to initiate the reaction. The assay is incubated at room temperature for 120 min after initiation. The CSox peptide substrate is phosphorylated by CDK9/T1 upon ATP hydrolysis.
as §1
Target sequence in this assay (P50750 whole entry): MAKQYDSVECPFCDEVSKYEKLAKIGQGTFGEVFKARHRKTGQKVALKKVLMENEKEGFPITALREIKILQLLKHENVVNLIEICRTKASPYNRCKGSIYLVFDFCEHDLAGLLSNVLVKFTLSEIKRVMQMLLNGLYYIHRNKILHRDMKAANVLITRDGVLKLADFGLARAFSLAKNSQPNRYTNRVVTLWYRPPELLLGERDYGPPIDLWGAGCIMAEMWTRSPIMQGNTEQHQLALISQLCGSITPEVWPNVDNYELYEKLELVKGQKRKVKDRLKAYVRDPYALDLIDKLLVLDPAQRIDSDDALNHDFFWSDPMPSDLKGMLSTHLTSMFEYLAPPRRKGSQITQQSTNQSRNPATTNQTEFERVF
Target sequence in this assay (O60563 whole entry partner): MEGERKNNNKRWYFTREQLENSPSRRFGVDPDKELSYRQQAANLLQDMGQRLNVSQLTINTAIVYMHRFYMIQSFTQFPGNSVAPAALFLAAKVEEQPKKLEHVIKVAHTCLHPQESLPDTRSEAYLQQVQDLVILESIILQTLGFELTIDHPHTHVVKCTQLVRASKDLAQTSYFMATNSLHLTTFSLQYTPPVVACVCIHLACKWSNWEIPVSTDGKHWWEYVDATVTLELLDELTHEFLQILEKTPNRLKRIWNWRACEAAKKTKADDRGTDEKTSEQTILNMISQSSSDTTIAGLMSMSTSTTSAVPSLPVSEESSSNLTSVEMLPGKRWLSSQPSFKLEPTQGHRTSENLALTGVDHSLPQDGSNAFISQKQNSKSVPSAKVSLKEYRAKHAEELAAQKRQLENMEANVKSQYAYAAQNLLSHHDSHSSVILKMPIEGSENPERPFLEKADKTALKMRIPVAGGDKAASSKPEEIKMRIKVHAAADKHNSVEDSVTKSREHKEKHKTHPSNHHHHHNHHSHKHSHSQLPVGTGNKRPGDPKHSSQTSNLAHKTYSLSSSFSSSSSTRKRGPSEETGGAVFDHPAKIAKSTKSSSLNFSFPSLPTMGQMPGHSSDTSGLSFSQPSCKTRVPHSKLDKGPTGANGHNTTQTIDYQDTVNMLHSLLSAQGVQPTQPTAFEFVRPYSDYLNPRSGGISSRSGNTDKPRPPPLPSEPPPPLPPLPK

CDK9/CyclinT1 [2] = target: T3, CDK9/CyclinT1; experiment: CDK9/CyclinT1 Mobility Shift Assay (Caliper, Table B); design: Wild-type, full length CDK9 in complex with wildtype, CyclinT1 (1-259): Biortus Cat #BP480/792/691; purchased Biortus BP480/792/691; details: read-out: CDK9/Cyclin T1 Caliper Ki: Average Ki
Summary of the method: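 Full-length wild-type CDK9 with CyclinT1 (1-259) and fluorescent peptide substrate, pre-incubated with compound 30 min at room temperature in Hepes/Brij-35/MgCl2/EGTA/BSA/DTT buffer; ATP added, 30 min reaction, EDTA stop. Substrate/product separated by microfluidic mobility shift; percent inhibition fit to four-parameter curve, IC50 converted to Ki by Cheng-Prusoff using Kmapp.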
Target sequence in this assay (P50750 whole entry): as the sequence (P50750 whole entry) above
Target sequence in this assay (O60563 1-259 partner limits assumed): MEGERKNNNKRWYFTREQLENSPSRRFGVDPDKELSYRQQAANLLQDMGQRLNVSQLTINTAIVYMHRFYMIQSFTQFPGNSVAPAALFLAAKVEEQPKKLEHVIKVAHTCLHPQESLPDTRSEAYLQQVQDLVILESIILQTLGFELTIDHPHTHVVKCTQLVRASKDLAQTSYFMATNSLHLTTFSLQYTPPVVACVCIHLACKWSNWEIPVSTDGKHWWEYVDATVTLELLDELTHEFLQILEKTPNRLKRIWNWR

T1 sequence (P06493 whole entry): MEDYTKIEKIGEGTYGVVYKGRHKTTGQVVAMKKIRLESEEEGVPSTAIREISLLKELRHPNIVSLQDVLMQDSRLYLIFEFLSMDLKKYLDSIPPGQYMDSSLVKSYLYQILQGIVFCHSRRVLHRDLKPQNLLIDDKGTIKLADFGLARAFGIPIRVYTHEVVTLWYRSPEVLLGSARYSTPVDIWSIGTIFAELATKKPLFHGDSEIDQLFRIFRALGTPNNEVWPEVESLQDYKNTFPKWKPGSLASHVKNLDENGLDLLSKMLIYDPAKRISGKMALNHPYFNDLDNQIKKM
T1 sequence (P14635 whole entry partner): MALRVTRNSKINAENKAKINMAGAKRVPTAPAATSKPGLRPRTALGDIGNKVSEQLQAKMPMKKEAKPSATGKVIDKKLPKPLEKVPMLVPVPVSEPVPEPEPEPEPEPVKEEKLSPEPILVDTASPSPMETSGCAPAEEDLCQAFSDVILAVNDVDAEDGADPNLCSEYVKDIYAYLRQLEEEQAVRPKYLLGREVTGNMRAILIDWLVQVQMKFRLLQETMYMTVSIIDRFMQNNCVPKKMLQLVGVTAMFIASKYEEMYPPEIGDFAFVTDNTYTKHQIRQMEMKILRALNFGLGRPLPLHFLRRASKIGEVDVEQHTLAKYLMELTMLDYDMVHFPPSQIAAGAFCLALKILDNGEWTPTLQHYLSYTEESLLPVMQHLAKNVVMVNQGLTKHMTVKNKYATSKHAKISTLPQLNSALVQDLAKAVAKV

O=C1NCC=CCNS(=O)(=O)c2ccc(c(F)c2)Nc2cc([nH]n2)[C@H]2CC[C@H](C2)O1 [Compound 102, (1^1S,1^3R,2^4Z)-4^2-fluoro-2^1H-13-oxa-5-thia-3,6,11-triaza-2(5,3)-pyrazola-4(1,4)-benzena-1(1,3)-cyclopentanacyclotridecaphan-8-en-12-one 5,5-dioxide]
Ki (CDK1/CyclinB1): 25 to 100 nM
Ki (CDK2/CyclinA2; 10xKm, read-out: CDK2/CCNA2 ChEF 10xKm Ki: Average Ki): < 1 nM
CDK2/CCNA2 ChEF 10xKm Ki: CDK2/A2 Selectivity over CDK9/T1 (CDK2/CyclinA2; selectivity over CDK9/T1): A (A>10)
Ki (CDK9/CyclinT1 [1]): ≥ 100 nM
Ki (CDK9/CyclinT1 [2]): ≥ 100 nM
